Laboratory results from US20260078099A1, “COMPOUND, PREPARATION METHOD THEREOF, AND LIPID NANOPARTICLE AND PHARMACEUTICAL COMPOSITION” (priority 2023, published 2026).

Assays:
mice = assay: Bioluminescent study, intramuscular injection of F-luc mRNA LNPs; type: in vivo; conditions: F-luc luminescence flux normalized to MC3; 0.25 mg/kg intramuscular, mice n=3, 6-hour time point
Protocol: The efficacy of nanoparticle compositions was evaluated using bioluminescent studies. A dose of 0.25 mg/kg (mpk) of the formulation was administered to mice (n=3) via intramuscular injection, and bioluminescence was measured at a 6-hour time point. The test lipid nanoparticles from the MC3 formulation were evaluated, and in some cases, controls (e.g., PBS controls) were assessed for comparison.
The characteristics of the test lipid nanoparticles measured from the test groups, including F-luc luminescence intensity, are listed in the table below.

[1] = LNP encapsulation efficiency (Quant-it Ribogreen); type: physicochemical; conditions: mRNA LNP, cationic lipid/DSPC/cholesterol/PEG-lipid 50:10:38.5:1.5
Source text: Encapsulation Efficiency: The encapsulation efficiency of a therapeutic and/or prophylactic agent refers to the amount of the therapeutic and/or prophylactic agent encapsulated within or otherwise associated with the nanoparticle composition relative to the initial amount provided during preparation. Encapsulation efficiency is desirably high (such as close to 100%). Encapsulation efficiency can be measured, for example, by comparing the amount of therapeutic and/or prophylactic agent in a solution containing the nanoparticle composition before and after disruption of the nanoparticle composition using one or more organic solvents or detergents. Fluorescence can be used to measure the amount of free therapeutic and/or prophylactic agent (e.g., RNA) in solution. For the nanoparticle compositions described herein, the encapsulation efficiency of the therapeutic and/or prophylactic agent may be at least 50%, such as 50%, 55%, 60%, 65%, 70%, 75%, 80%, 85%, 90%, 91%, 92%, 93%, 94%, 95%, 96%, 97%, 98%, 99%, or 100%. In some embodiments, the encapsulation efficiency may be at least 80%. In certain embodiments, the encapsulation efficiency may be at least 90%.
(§1) In summary, the cationic lipid described herein, DSPC, cholesterol, and PEG-lipid were dissolved in ethanol at a molar ratio of 50:10:38.5:1.5 and diluted in 10 mM to 50 mM citrate buffer at pH 4 with mRNA. Using a microfluidic device, the lipid ethanol solution was mixed with mRNA aqueous solution at a volume ratio of 1:3 and a total flow rate ranging from 6-30 mL/min, preparing LNPs with a total lipid to mRNA weight ratio of approximately 10:1 to 30:1. Ethanol was removed by dialysis and replaced with PBS. Finally, the lipid nanoparticles were filtered through a 0.22 μm sterile filter.
(§2) The size of lipid nanoparticles was measured by dynamic light scattering using a Malvern Zetasizer Nano ZS (Malvern, UK) with a 90° scattering detection mode. The encapsulation efficiency of lipid nanoparticles was determined using the Quant-it Ribogreen RNA Quantitation Kit (Thermo Fisher Scientific, UK) according to the manufacturer's instructions. The apparent pKa of LNP formulations correlates with the delivery efficiency of nucleic acids by LNPs in vivo. The apparent pKa ranges from approximately 5 to 7. An analysis based on fluorescence from 2-(p-tolylamino)-6-naphthalenesulfonic acid (TNS) was used to determine the apparent pKa of formulations. As described above, LNP formulations containing cationic lipid/DSPC/cholesterol/DMG-PEG (50/10/38.5/1.5 mol %) in PBS were prepared. A 300 μM stock solution of TNS in distilled water was prepared. LNP formulations were diluted to 0.1 mg/mL total lipid in 3 mL of buffer solution containing 50 mM sodium citrate, 50 mM sodium phosphate, 50 mM sodium borate, and 30 mM sodium chloride (pH ranged from 3 to 9). […] S-shaped curve best-fit analysis was applied to the fluorescence data, and the pKa value was measured as the pH value producing half-maximal fluorescence intensity.

LNP zeta potential = type: physicochemical; conditions: mRNA LNP
Source text: Nanoparticle compositions can be characterized by various methods. For example, the morphology and size distribution of nanoparticle compositions can be examined using microscopy (e.g., transmission electron microscopy or scanning electron microscopy). The zeta potential can be measured using dynamic light scattering or potentiometric titration. Dynamic light scattering can also be used to determine particle size. Instruments such as the Zetasizer Nano ZS (Malvern Instruments Ltd., Malvern, Worcestershire, UK) can also be used to measure multiple characteristics of nanoparticle compositions, such as particle size, polydispersity index, and zeta potential.
[…]: The zeta potential of the nanoparticle composition can indicate the electrophoretic potential of the composition. For example, zeta potential may describe the surface charge of the nanoparticle composition. Nanoparticle compositions with relatively low positive or negative charges are generally desirable, as materials with higher charges may interact undesirably with cells, tissues, and other components in the body. In some embodiments, the zeta potential of the nanoparticle composition may be about −10 mV to about +20 mV, about −10 mV to about +15 mV, about −10 mV to about +10 mV, about −10 mV to about +5 mV, about −10 mV to about 0 mV, about −10 mV to about −5 mV, about −5 mV to about +20 mV, about −5 mV to about +15 mV, about −5 mV to about +10 mV, about −5 mV to about +5 mV, about −5 mV to about 0 mV, about 0 mV to about +20 mV, about 0 mV to about +15 mV, about 0 mV to about +10 mV, about 0 mV to about +5 mV, about +5 mV to about +20 mV, about +5 mV to about +15 mV, or about +5 mV to about +10 mV.

[2] = LNP size and PDI by dynamic light scattering; type: physicochemical; conditions: mRNA LNP, cationic lipid/DSPC/cholesterol/PEG-lipid 50:10:38.5:1.5
Protocol: as §1, §2

Row | Structure (SMILES) | Relative Total flux (mice) | Encapsulation efficiency (%) [1] | Zeta potential (mV) (LNP zeta potential) | PDI [2] | Size (nm) [2]
1 | CCCCCCCC(C(=O)NCCCCCCCCCC(=O)OC(CCCCCC)CCCCCC)N(CCCN(CCO)CCO)C(=O)CCCCCCCCCC(=O)OCC12CC3CC(CC(C3)C1)C2 (centres unmarked) [Compound B4] | A (A: ≥2) | 96.14% | 10.58 mV | 0.159 | 72.08 nm
2 | CCCCC/C=C\C/C=C\CCCCCCCCC(CCCCCCCC/C=C\C/C=C\CCCCC)OC(=O)CCCN(C)C [DLin-MC3, reference compound] | B (B: ≥1 and <2) | 95.24% | −3.25 mV | 0.036 | 87.75 nm
3 | CCCCCCCCNC(=O)C(CCCCCCCC)N(CCN(C)CCO)C(=O)CCCCCCC(=O)OC(CCCCCCCC)CCCCCCCC (centres unmarked) [Compound B31] | A (A: ≥2) | 95.03% | 4.83 mV | 0.10 | 61.00 nm
4 | CCCCCCCCC(C(=O)NCCCCCCCCCC(=O)OC(CCCCCC)CCCCCC)N(CCCN1CCCC1)C(=O)CCCCCCCCCC(=O)OC(CCCCCC)CCCCCC (centres unmarked) [Compound A1] | B (B: ≥1 and <2) | 67.41% | −12.25 mV | 0.135 | 82.96 nm
5 | CCCCCCCC(C(=O)NCCCCCCCCCC(=O)OC(CCCCCC)CCCCCC)N(CCCN(C)C)C(=O)CCCCCCCCCC(=O)OCC1CC=CCC1 (centres unmarked) [Compound A19] | D (D: <0.1.) | 89.13% | −0.20 mV | 0.093 | 78.64 nm
6 | CCCCCCCC(C(=O)NCCCCCCCCCC(=O)OC(CCCCCC)CCCCCC)N(COC(=O)CCN(C)C)C(=O)CCCCCCCCCC(=O)OC(CCCCCC)CCCCCC (centres unmarked) [Compound B23] | B (B: ≥1 and <2) | 93.95% | 12.50 mV | 0.214 | 68.16 nm
7 | CCCCCCCC(C(=O)NCCCCCCCCCC(=O)OC(CCCCCC)CCCCCC)N(CCCN1CCCC1)C(=O)CCCCCCCCCC(=O)OCC12CC3CC(CC(C3)C1)C2 (centres unmarked) [Compound A7] | C (C: ≥0.1 and <1) | 96.10% | 4.99 mV | 0.274 | 62.53 nm
8 | CCCCCCCC(C(=O)NCCCCCCCCCC(=O)OC(CCCCCC)CCCCCC)N(CCOC(=O)CCN(C)C)C(=O)CCCCCCCCCC(=O)OC(CCCCCC)CCCCCC (centres unmarked) [Compound B24] | A (A: ≥2) | 93.57% | −9.96 mV | 0.245 | 68.83 nm
9 | CCCCCCC(CCCCCC)OC(=O)CCCCCCCCCNC(=O)C(CCCCCCCCCC(=O)OC(CCCCCC)CCCCCC)N(CCCN(C)CCO)C(=O)CCCN(C)CCO (centres unmarked) [Compound E5] | B (B: ≥1 and <2) | 93.90% | −19.40 mV | 0.183 | 84.36 nm
10 | CCCCCCCC(C(=O)NCCCCCCCCCC(=O)OC(CCCCCC)CCCCCC)N(CCCN(C)CCO)C(=O)CCCCCCCCCC(=O)OC(CCCCCC)CCCCCC (centres unmarked) [Compound B8] | A (A: ≥2) | 91.38% | −7.30 mV | 0.152 | 60.47 nm
11 | CCCCCCCC(C(=O)NCCCCCCCCCC(=O)OC(CCCCCC)CCCCCC)N(CCCN(CCO)C1CCCC1)C(=O)CCCCCCCCCC(=O)OC(CCCCCC)CCCCCC (centres unmarked) [Compound B12] | A (A: ≥2) | 93.45% | −9.02 mV | 0.183 | 65.03 nm
12 | CCCCCCC(CCCCCC)OC(=O)CCCCCCCCCNC(=O)C(CCCCCCCCCC(=O)OC(CCCCCC)CCCCCC)N(CCCN(CCO)CCO)C(=O)CCCN(C)CCO (centres unmarked) [Compound E2] | C (C: ≥0.1 and <1) | 91.65% | −9.45 mV | 0.143 | 78.64 nm
13 | CCCCCCCC(C(=O)NCCCCCCCCCC(=O)OC(CCCCCC)CCCCCC)N(CCCN(C)C)C(=O)CCCCCCCCCC(=O)OCC12CC3CC(CC(C3)C1)C2 (centres unmarked) [Compound A17] | D (D: <0.1.) | 53.24% | −0.68 mV | 0.07 | 60.77 nm
14 | CCCCCCCCC(C(=O)NCCCCCCCCCC(=O)OCCCCCC)N(CCCN(CCO)CCO)C(=O)CCCCCCCCCC(=O)OC(CCCCCC)CCCCCC (centres unmarked) [Compound B3] | A (A: ≥2) | 79.83% | −6.91 mV | 0.306 | 85.75 nm
15 | CCCCCCCCC(CCCCCC)COC(=O)CCCCCCCCCNC(=O)C(CCCCCCCC)N(CCCN1CCCC1)C(=O)CCCCCCCCCC(=O)OCC(CCCCCC)CCCCCCCC (centres unmarked) [Compound A4] | D (D: <0.1.) | 97.34% | 5.65 mV | 0.202 | 72.85 nm
16 | CCCCCCCC(C(=O)NCCCCCCCCCC(=O)OC(CCCCCC)CCCCCC)N(CCCN1CCCC1)C(=O)CCCCCCCCCC(=O)OCC1CC=CCC1 (centres unmarked) [Compound A9] | D (D: <0.1.) | 93.54% | −18.67 mV | 0.191 | 64.58 nm
17 | CCCCCC/C=C\CCCCCCCC(C(=O)NCCCCCC)N(CCCN(C)C)C(=O)CCCCCCC(=O)OC(CCCCCCCC)CCCCCCCC (centres unmarked) [Compound A40] | C (C: ≥0.1 and <1) | 93.54% | −0.97 mV | 0.17 | 75.94 nm
18 | CCCCCCCCNC(=O)C(CCCCCCCC)N(CCC1CCCN1C)C(=O)CCCCCCC(=O)OC(CCCCCCCC)CCCCCCCC (centres unmarked) [Compound A34] | A (A: ≥2) | 95.23% | 2.08 mV | 0.11 | 94.21 nm
19 | CCCCCCCCC(C(=O)NCCCCCCCCCC(=O)OCC12CC3CC(CC(C3)C1)C2)N(CCCN1CCCC1)C(=O)CCCCCCCCCC(=O)OC(CCCCCC)CCCCCC (centres unmarked) [Compound A8] | D (D: <0.1.) | 92.88% | −19.03 mV | 0.16 | 66.98 nm
